pIC50: −log10 of the molar value.

The target in this test is Nav 1.7 (Homo sapiens (Human), UniProt Q15858). The test can be described thus: in-vitro Nav 1.7 PX (IC50). It counts as cell-based. As to conditions: in-vitro Nav 1.7 PX data.
Sequence of Nav 1.7 (Q15858 whole entry): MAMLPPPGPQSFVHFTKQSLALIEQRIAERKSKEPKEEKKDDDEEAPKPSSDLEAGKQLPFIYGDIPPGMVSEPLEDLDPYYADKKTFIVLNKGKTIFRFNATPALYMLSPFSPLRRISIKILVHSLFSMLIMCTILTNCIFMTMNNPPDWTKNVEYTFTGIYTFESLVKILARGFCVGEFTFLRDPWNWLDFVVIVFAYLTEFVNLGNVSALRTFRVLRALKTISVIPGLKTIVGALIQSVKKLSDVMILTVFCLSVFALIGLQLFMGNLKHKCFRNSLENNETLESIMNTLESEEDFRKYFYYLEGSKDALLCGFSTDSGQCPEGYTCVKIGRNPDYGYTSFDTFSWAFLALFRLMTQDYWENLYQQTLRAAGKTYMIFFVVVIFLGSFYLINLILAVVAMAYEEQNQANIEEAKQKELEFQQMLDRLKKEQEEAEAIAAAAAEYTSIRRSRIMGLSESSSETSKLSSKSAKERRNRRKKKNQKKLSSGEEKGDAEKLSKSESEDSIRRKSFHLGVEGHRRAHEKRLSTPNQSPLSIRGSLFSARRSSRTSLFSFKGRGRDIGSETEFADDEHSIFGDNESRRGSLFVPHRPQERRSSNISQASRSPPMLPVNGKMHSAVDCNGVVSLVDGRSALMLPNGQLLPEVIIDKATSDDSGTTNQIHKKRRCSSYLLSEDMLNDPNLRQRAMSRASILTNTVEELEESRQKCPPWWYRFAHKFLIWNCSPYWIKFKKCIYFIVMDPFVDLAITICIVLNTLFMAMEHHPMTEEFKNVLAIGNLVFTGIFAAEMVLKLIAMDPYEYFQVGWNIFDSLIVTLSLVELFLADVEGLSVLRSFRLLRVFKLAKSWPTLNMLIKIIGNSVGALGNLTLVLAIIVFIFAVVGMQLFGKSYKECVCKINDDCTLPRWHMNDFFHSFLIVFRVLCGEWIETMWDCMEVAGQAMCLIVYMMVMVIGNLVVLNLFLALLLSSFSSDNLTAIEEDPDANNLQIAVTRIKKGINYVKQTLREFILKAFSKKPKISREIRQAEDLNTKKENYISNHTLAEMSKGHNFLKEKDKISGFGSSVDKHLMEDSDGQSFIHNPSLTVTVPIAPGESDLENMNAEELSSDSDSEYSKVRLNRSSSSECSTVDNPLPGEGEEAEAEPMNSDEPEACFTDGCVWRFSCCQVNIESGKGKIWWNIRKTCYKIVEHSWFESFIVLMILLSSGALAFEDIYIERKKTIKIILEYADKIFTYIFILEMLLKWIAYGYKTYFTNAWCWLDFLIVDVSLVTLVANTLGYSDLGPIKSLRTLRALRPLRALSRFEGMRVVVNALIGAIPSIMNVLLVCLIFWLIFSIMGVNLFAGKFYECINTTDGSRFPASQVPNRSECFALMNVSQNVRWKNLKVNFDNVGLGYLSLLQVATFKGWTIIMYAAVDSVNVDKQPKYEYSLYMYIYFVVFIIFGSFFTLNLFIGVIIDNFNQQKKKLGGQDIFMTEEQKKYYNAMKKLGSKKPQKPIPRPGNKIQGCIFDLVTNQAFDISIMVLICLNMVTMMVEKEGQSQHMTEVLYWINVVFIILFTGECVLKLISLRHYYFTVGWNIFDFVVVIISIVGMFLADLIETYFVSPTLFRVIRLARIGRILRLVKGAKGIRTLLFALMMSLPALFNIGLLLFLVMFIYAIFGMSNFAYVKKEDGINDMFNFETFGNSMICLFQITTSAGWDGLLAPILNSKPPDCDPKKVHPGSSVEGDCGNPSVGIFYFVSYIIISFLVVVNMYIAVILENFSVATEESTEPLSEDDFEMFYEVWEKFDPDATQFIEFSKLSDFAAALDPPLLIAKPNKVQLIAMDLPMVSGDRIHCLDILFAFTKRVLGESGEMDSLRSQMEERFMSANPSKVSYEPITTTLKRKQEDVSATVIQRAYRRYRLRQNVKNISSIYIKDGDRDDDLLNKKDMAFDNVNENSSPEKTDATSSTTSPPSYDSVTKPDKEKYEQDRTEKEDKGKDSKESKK
The molecule `COc1cc(CC(C)(C)C)c(F)cc1-n1c(=O)ccc2cc(S(=O)(=O)Nc3ccon3)ccc21` [Example 1076, 1-(4-(2,2-dimethylpropyl)-5-fluoro-2-methoxyphenyl)-N-3-isoxazolyl-2-oxo-1,2-dihydro-6-quinolinesulfonamide] had a pIC50 of 7.19. Take `COc1cc(C2CCCCC2)c(F)cc1-n1c(=O)ccc2cc(S(=O)(=O)Nc3ccon3)ccc21` [Example 1077, 1-(4-cyclohexyl-5-fluoro-2-methoxyphenyl)-N-3-isoxazolyl-2-oxo-1,2-dihydro-6-quinolinesulfonamide]: the pIC50 is 7.42. In the case of `COc1cc(CC2CCC2)c(F)cc1-n1c(=O)ccc2cc(S(=O)(=O)Nc3ccon3)ccc21` [Example 1078, 1-(4-(cyclobutylmethyl)-5-fluoro-2-methoxyphenyl)-N-3-isoxazolyl-2-oxo-1,2-dihydro-6-quinolinesulfonamide], the pIC50 was 7.16. `COc1nc(-c2cc(F)cc(F)c2)c(Cl)cc1-n1c(=O)ccc2cc(S(=O)(=O)Nc3ncccn3)ccc21` [Example 1080, 1-(5-chloro-6-(3,5-difluorophenyl)-2-methoxy-3-pyridinyl)-2-oxo-N-2-pyrimidinyl-1,2-dihydro-6-quinolinesulfonamide] gave a negative-log IC50 (pIC50) of 7.68. `COc1nc(-c2cc(F)cc(F)c2)c(Cl)cc1-n1c(=O)ccc2cc(S(=O)(=O)Nc3ncccn3)ccc21` [Example 1081, 1-(5-chloro-6-(3,5-difluorophenyl)-2-methoxy-3-pyridinyl)-2-oxo-N-2-pyrimidinyl-1,2-dihydro-6-quinolinesulfonamide] gave a negative logarithm of the IC50 (pIC50) of 5.38.

Take `COc1cc(CC2C[C@@H]3CC[C@@H]2C3)c(F)cc1-n1c(=O)ccc2cc(S(=O)(=O)Nc3ccon3)ccc21` (some centres unmarked) [Example 1082]: the pIC50 is 8.05. For `COc1cc([C@H]2CC[C@@H](C)CC2)c(F)cc1-n1c(=O)ccc2cc(S(=O)(=O)Nc3ccon3)ccc21` [Example 1083, 1-(5-fluoro-2-methoxy-4-(cis-4-methylcyclohexyl)phenyl)-N-3-isoxazolyl-2-oxo-1,2-dihydro-6-quinolinesulfonamide, 1-(5-fluoro-2-methoxy-4-(trans-4-methylcyclohexyl)phenyl)-N-3-isoxazolyl-2-oxo-1,2-dihydro-6-quinolinesulfonamide] the value was 8.00; for `COc1nc(-c2ccc(Cl)c(C)c2)c(Cl)cc1-n1c(=O)ccc2cc(S(=O)(=O)Nc3ccon3)ccc21` [Example 1085, 1-(5-chloro-6-(4-chloro-3-methylphenyl)-2-methoxy-3-pyridinyl)-N-3-isoxazolyl-2-oxo-1,2-dihydro-6-quinolinesulfonamide], 5.46. `COc1cc([C@H]2CC[C@@H](OC)CC2)c(F)cc1-n1c(=O)ccc2cc(S(=O)(=O)Nc3ccon3)ccc21` [Example 1086, 1-(5-fluoro-2-methoxy-4-(cis-4-methoxycyclohexyl)phenyl)-N-3-isoxazolyl-2-oxo-1,2-dihydro-6-quinolinesulfonamide, 1-(5-fluoro-2-methoxy-4-(trans-4-methoxycyclohexyl)phenyl)-N-3-isoxazolyl-2-oxo-1,2-dihydro-6-quinolinesulfonamide] had a pIC50 of 5.41. In turn, `COc1cc(C[C@@H]2C[C@@H]3CC[C@H]2O3)c(F)cc1-n1c(=O)ccc2cc(S(=O)(=O)Nc3ccon3)ccc21` [Example 1087, 1-(5-fluoro-2-methoxy-4-((1R,2R,4S)-7-oxabicyclo[2.2.1]hept-2-ylmethyl)phenyl)-N-3-isoxazolyl-2-oxo-1,2-dihydro-6-quinolinesulfonamide, 1-(5-fluoro-2-methoxy-4-((1S,2S,4R)-7-oxabicyclo[2.2.1]hept-2-ylmethyl)phenyl)-N-3-isoxazolyl-2-oxo-1,2-dihydro-6-quinolinesulfonamide] had a pIC50 of 5.76.

Regarding `COc1nc(-c2cccc(C)c2)c(Cl)cc1-n1c(=O)ccc2cc(S(=O)(=O)Nc3ccon3)ccc21` [Example 1088, 1-(5-chloro-2-methoxy-6-(3-methylphenyl)-3-pyridinyl)-N-3-isoxazolyl-2-oxo-1,2-dihydro-6-quinolinesulfonamide], the pIC50 was 7.33.

The molecule `COc1nc(-c2cccc(C)c2)c(Cl)cc1-n1c(=O)ccc2cc(S(=O)(=O)Nc3ccon3)ccc21` [Example 1089, 1-(5-chloro-2-methoxy-6-(3-methylphenyl)-3-pyridinyl)-N-3-isoxazolyl-2-oxo-1,2-dihydro-6-quinolinesulfonamide] showed a pIC50 of 5.49. Molecule `COc1nc(-c2cccc(C#N)c2)c(Cl)cc1-n1c(=O)ccc2cc(S(=O)(=O)Nc3ccon3)ccc21` [Example 1090, 1-(5-chloro-6-(3-cyanophenyl)-2-methoxy-3-pyridinyl)-N-3-isoxazolyl-2-oxo-1,2-dihydro-6-quinolinesulfonamide] showed a negative-log IC50 (pIC50) of 6.70. `COc1nc(-c2cccc(C#N)c2)c(Cl)cc1-n1c(=O)ccc2cc(S(=O)(=O)Nc3ccon3)ccc21` [Example 1091, 1-(5-chloro-6-(3-cyanophenyl)-2-methoxy-3-pyridinyl)-N-3-isoxazolyl-2-oxo-1,2-dihydro-6-quinolinesulfonamide] showed a pIC50 of 4.69. Turning to `COc1cccc(-c2nc(OC)c(-n3c(=O)ccc4cc(S(=O)(=O)Nc5ccon5)ccc43)cc2Cl)c1` [Example 1092, 1-(5-chloro-2-methoxy-6-(3-methoxyphenyl)-3-pyridinyl)-N-3-isoxazolyl-2-oxo-1,2-dihydro-6-quinolinesulfonamide], the pIC50 was 7.32. For `COc1cccc(-c2nc(OC)c(-n3c(=O)ccc4cc(S(=O)(=O)Nc5ccon5)ccc43)cc2Cl)c1` [Example 1093, 1-(5-chloro-2-methoxy-6-(3-methoxyphenyl)-3-pyridinyl)-N-3-isoxazolyl-2-oxo-1,2-dihydro-6-quinolinesulfonamide] the value was 5.31. In the case of `COc1cc(-c2cc(F)cc(C(F)(F)F)c2)ccc1-n1c(=O)ccc2cc(S(=O)(=O)Nc3cnccn3)ccc21` [Example 1094, 1-(3′-fluoro-3-methoxy-5′-(trifluoromethyl)-4-biphenylyl)-2-oxo-N-2-pyrazinyl-1,2-dihydro-6-quinolinesulfonamide] it was 7.16; in that of `COc1cc(-c2cc(F)cc(C(F)(F)F)c2)ccc1-n1c(=O)ccc2cc(S(=O)(=O)Nc3cccnn3)ccc21` [Example 1095, 1-(3′-fluoro-3-methoxy-5′-(trifluoromethyl)-4-biphenylyl)-2-oxo-N-3-pyridazinyl-1,2-dihydro-6-quinolinesulfonamide], 8.22; in that of `COc1cc([C@@H]2CCOC(C)(C)C2)c(F)cc1-n1c(=O)ccc2cc(S(=O)(=O)Nc3ccon3)ccc21` [Example 1096, 1-(4-((4R)-2,2-dimethyltetrahydro-2H-pyran-4-yl)-5-fluoro-2-methoxyphenyl)-N-3-isoxazolyl-2-oxo-1,2-dihydro-6-quinolinesulfonamide, 1-(4-((4S)-2,2-dimethyltetrahydro-2H-pyran-4-yl)-5-fluoro-2-methoxyphenyl)-N-3-isoxazolyl-2-oxo-1,2-dihydro-6-quinolinesulfonamide], 5.95. On to `COc1cc(-c2cc(F)cc(C(F)(F)F)c2)ccc1-n1c(=O)ccc2cc(S(=O)(=O)Nc3ncccn3)ccc21` [Example 1097], for which the pIC50 was 7.30. `COc1cc(-c2cc(F)cc(C(F)(F)F)c2)ccc1-n1c(=O)ccc2cc(S(=O)(=O)Nc3ccnc(C)n3)ccc21` [Example 1100, 1-(3′-fluoro-3-methoxy-5′-(trifluoromethyl)-4-biphenylyl)-N-(2-methyl-4-pyrimidinyl)-2-oxo-1,2-dihydro-6-quinolinesiilfonamide]: the pIC50 is 7.43.

The molecule `COc1cc(-c2cc(F)cc(C(F)(F)F)c2)ccc1-n1c(=O)ccc2cc(S(=O)(=O)Nc3cc(C)ncn3)ccc21` [Example 1101, 1-(3′-fluoro-3-methoxy-5′-(trifluoromethyl)-4-biphenylyl)-N-(6-methyl-4-pyrimidinyl)-2-oxo-1,2-dihydro-6-quinolinesulfonamide] gave a pIC50 of 7.39. On to `COc1cc(C2CCC(F)(F)CC2)c(F)cc1-n1c(=O)ccc2cc(S(=O)(=O)Nc3ccon3)ccc21` [Example 1102, 1-(4-(4,4-difluorocyclohexyl)-5-fluoro-2-methoxyphenyl)-N-3-isoxazolyl-2-oxo-1,2-dihydro-6-quinolinesulfonamide], for which the pIC50 was 6.63. Take `COc1cc(Br)c(F)cc1-n1c(=O)ccc2cc(S(=O)(=O)Nc3ccon3)ccc21` [Example 1105, 1-(4-bromo-5-fluoro-2-methoxyphenyl)-N-3-isoxazolyl-2-oxo-1,2-dihydro-6-quinolinesulfonamide]: the pIC50 was 6.51.

Molecule `COc1cc(-c2cccc(C)c2)c(F)cc1-n1c(=O)ccc2cc(S(=O)(=O)Nc3ncco3)ccc21` [Example 1106, 1-(2-fluoro-5-methoxy-3′-methyl-4-biphenylyl)-N-1,3-oxazol-2-yl-2-oxo-1,2-dihydro-6-quinolinesulfonamide] had a pIC50 of 7.62.

Molecule `COc1cc(-c2cccc(C)c2)c(F)cc1-n1c(=O)ccc2cc(S(=O)(=O)Nc3ncccn3)ccc21` [Example 1107, 1-(2-fluoro-5-methoxy-3′-methyl-4-biphenylyl)-2-oxo-N-2-pyrimidinyl-1,2-dihydro-6-quinolinesulfonamide] showed a pIC50 of 7.49. For `COc1cc(-c2cccc(C)c2)c(F)cc1-n1c(=O)ccc2cc(S(=O)(=O)Nc3cccnn3)ccc21` [Example 1108, 1-(2-fluoro-5-methoxy-3′-methyl-4-biphenylyl)-2-oxo-N-3-pyridazinyl-1,2-dihydro-6-quinolinesulfonamide], the pIC50 is 7.68.

As for `COc1cc(-c2cccc(C)c2)c(F)cc1-n1c(=O)ccc2cc(S(=O)(=O)Nc3ncc(F)cn3)ccc21` [Example 1109, 1-(2-fluoro-5-methoxy-3′-methyl-4-biphenylyl)-N-(5-fluoro-2-pyrimidinyl)-2-oxo-1,2-dihydro-6-quinolinesulfonamide], the pIC50 is 7.70. Turning to `COc1cc(CC2CCCCC2)c(F)cc1-n1c(=O)ccc2cc(S(=O)(=O)Nc3ncco3)ccc21` [Example 1110, 1-(4-(cyclohexylmethyl)-5-fluoro-2-methoxyphenyl)-N-1,3-oxazol-2-yl-2-oxo-1,2-dihydro-6-quinolinesulfonamide], the pIC50 is 7.28.

(Values after patent publication US9212182B2, “Bicyclic sulfonamide compounds as sodium channel inhibitors” (AMGEN INC., priority 2013, dated 2015).)
